Reference: patent publication US5250695A, “Use of specific counteranions to modify the solubility of tetrazolium salts” (Miles Inc., priority 1992, dated 1993)

Columns and labels:
[1] = Solubility testing of tetrazolium salts in methanol and water (Table I); details: for solubility in methanol (in words) / solubility in water (in words): discussion of Table I
[2] = Impregnation of zwitterionic nylon fabric with tetrazolium salt and ATP; HPLC of methanol extract, extraction into aqueous impregnation solution (Example II); details: 1 liter remaining after aqueous ATP impregnation
From the text: The solution also contained some formazan which was not quantified.
4 L×0.08 moles/L=0.32 moles of tetrazolium salt impregnated into the membrane during first treatment.
1 L×0.006 moles/L=0.006 moles extracted during aqueous impregnation.

[3] = cited from earlier work
[4] = listed as DCT tetrafluoroborate

SMILES	Solubility, Water [1]	Solubility, Methanol [1]	other results
O=[N+]([O-])c1ccc(-n2nc(-c3ccccc3)n[n+]2-c2ccc(I)cc2)cc1 [INT Cl^-, 2-(4-iodophenyl)-3-(4-nitrophenyl)-5-phenyl tetrazolium, reference compound]	3 m mol L		
COc1ccccc1-[n+]1nc(-c2ccc3c(c2)OCO3)nn1-c1nc(C(F)F)c(Cl)s1 [DCMT Br^-, 2-(4-difluoromethyl-5-chlorothiazol-2-yl)-3-(2 methoxyphenyl)-5-(3,4-methylenedioxyphenyl) tetrazolium]	< 1 m mol L	24 m mol L	
COc1ccc(-c2nn(-c3nc4c(cc(OC)c5ccccc54)s3)[n+](-c3cc(OC)c(OC)c(OC)c3)n2)cc1 [MTM PrSO3^-, 2-(5-methoxynaphtho[1,2-d]thiazol-2-yl)-3-(3,4,5-trimethoxyphenyl)-5-(4-methoxyphenyl) tetrazolium]		100 m mol L	solubility in methanol (in words) ([1]; listed as MTM propanesulfonate): substantially increased
COc1cc(-[n+]2nc(-c3ccc4c(c3)OCO4)nn2-c2nc(C(F)F)c(Cl)s2)cc(OC)c1OC [DCT PrSO3^-, 2-(4-difluoromethyl-5-chlorothiazol-2-yl)-3-(3,4,5-trimethoxyphenyl)-5-(3,4-methylenedioxyphenyl) tetrazolium]	16 m mol L	> 650 m mol L	
COc1ccccc1-[n+]1nc(-c2ccc3c(c2)OCO3)nn1-c1nc(C(F)F)c(Cl)s1 [DCMT BF4^-, 2-(4-difluoromethyl-5-chlorothiazol-2-yl)-3-(2 methoxyphenyl)-5-(3,4-methylenedioxyphenyl) tetrazolium]	2.7 m mol L	12.9 m mol L	
COc1cc(-[n+]2nc(-c3ccc4c(c3)OCO4)nn2-c2nc(C(F)F)c(Cl)s2)cc(OC)c1OC [DCT BzSO3^-, 2-(4-difluoromethyl-5-chlorothiazol-2-yl)-3-(3,4,5 trimethoxyphenyl)-(5-(3,4-methylenedioxyphenyl)tetrazolium benzenesulfonate]		> 550 m mol L	solubility in methanol (in words) ([1]; listed as DCT benzenesulfonate): high methanol solubility; tetrazolium salt extracted from the treated membrane into remaining aqueous solution [2]: 3 mM
COc1ccc(-c2nn(-c3nc4c(cc(OC)c5ccccc54)s3)[n+](-c3cc(OC)c(OC)c(OC)c3)n2)cc1 [MTM MeSO3^-, 2-(5-methoxynaphtho[1,2-d]thiazol-2-yl)-3-(3,4,5-trimethoxyphenyl)-5-(4-methoxyphenyl) tetrazolium]		48 m mol L	solubility in methanol (in words) ([1]; listed as MTM methanesulfonate): substantially increased
C=C1CC(C)C2C3Cc4ccc(O)cc4C2(CCN3CC2CCC2)C1 (stereo not drawn) [17-cyclobutylmethyl-3-hydroxy-862-methyl-6-methylene morphinane]			solubility on converting chloride salt to methanesulfonate ([3]; U.S. Pat. No. 4,334,071): enhancement of the solubility
COc1cc(-[n+]2nc(-c3ccc4c(c3)OCO4)nn2-c2nc(C(F)F)c(Cl)s2)cc(OC)c1OC [DCT MeSO3^-, 2-(4-difluoromethyl-5-chlorothiazol-2-yl)-3-(3,4,5-trimethoxyphenyl)-5-(3,4-methylenedioxyphenyl) tetrazolium]	73 m mol L	> 500 m mol L	solubility in methanol (in words) ([1]; listed as DCT methanesulfonate): highly soluble; solubility in water (in words) ([1]; listed as DCT methanesulfonate): highly soluble
CN1CC[C@]23c4c5ccc(OCc6ccccc6)c4O[C@H]2[C@@H](O)C=C[C@H]3[C@H]1C5 [benzylmorphine, reference compound]			water solubility after conversion to alkyl sulphonic acid salt ([3]; U.S. Pat. No. 1,892,019, methane or ethanesulfonic acid): increased water solubility
COc1cc(-[n+]2nc(-c3ccc4c(c3)OCO4)nn2-c2nc(C(F)F)c(Cl)s2)cc(OC)c1OC [DCT BF4^-, 2-(4-difluoromethyl-5-chlorothiazol-2-yl)-3-(3,4,5-trimethoxyphenyl)-5-(3,4-methylenedioxyphenyl) tetrazolium]	< 0.5 m mol L	< 16 m mol L	solubility in methanol (in words) [1, 4]: only marginally soluble; solubility in water (in words) [1, 4]: only marginally soluble
COc1ccc(-c2nn(-c3nc4c(cc(OC)c5ccccc54)s3)[n+](-c3cc(OC)c(OC)c(OC)c3)n2)cc1 [MTM BzSO3, 2-(5-methoxynaphtho[1,2-d]thiazol-2-yl)-3-(3,4,5-trimethoxyphenyl)-5-(4-methoxyphenyl) tetrazolium]		19 m mol L	solubility in methanol (in words) ([1]; listed as MTM benzenesulfonate): substantially greater than the nitrate
COc1ccccc1-[n+]1nc(-c2ccc3c(c2)OCO3)nn1-c1nc(C(F)F)c(Cl)s1 [DCMT PrSO3^-, 2-(4-difluoromethyl-5-chlorothiazol-2-yl)-3-(2 methoxyphenyl)-5-(3,4-methylenedioxyphenyl) tetrazolium]	23 m mol L	> 760 m mol L	
COc1ccccc1-[n+]1nc(-c2ccc3c(c2)OCO3)nn1-c1nc(C(F)F)c(Cl)s1 [DCMT BuSO3^-, 2-(4-difluoromethyl-5-chlorothiazol-2-yl)-3-(2 methoxyphenyl)-5-(3,4-methylenedioxyphenyl) tetrazolium]	15 m mol L	> 700 m mol L	
COc1cc(-[n+]2nc(-c3ccc4c(c3)OCO4)nn2-c2nc(C(F)F)c(Cl)s2)cc(OC)c1OC [DCT Br^-, 2-(4-difluoromethyl-5-chlorothiazol-2-yl)-3-(3,4,5-trimethoxyphenyl)-5-(3,4-methylenedioxyphenyl) tetrazolium]	< 1 m mol L	10 m mol L	solubility in methanol (in words) ([1]; listed as DCT bromide): only marginally soluble; solubility in water (in words) ([1]; listed as DCT bromide): only marginally soluble
COc1cc(-[n+]2nc(-c3ccc4c(c3)OCO4)nn2-c2nc(C(F)F)c(Cl)s2)cc(OC)c1OC [DCT NO3^-, 2-(4-difluoromethyl-5-chlorothiazol-2-yl)-3-(3,4,5-trimethoxyphenyl)-5-(3,4-methylenedioxyphenyl) tetrazolium]	2 m mol L	22 m mol L	solubility in methanol (in words) ([1]; listed as DCT nitrate): only marginally soluble; solubility in water (in words) ([1]; listed as DCT nitrate): only marginally soluble
COc1cc(-[n+]2nc(-c3ccc4c(c3)OCO4)nn2-c2nc(C(F)F)c(Cl)s2)cc(OC)c1OC [DCT EtSO3^-, 2-(4-difluoromethyl-5-chlorothiazol-2-yl)-3-(3,4,5-trimethoxyphenyl)-5-(3,4-methylenedioxyphenyl) tetrazolium]	26 m mol L	> 600 m mol L	
COc1ccccc1-[n+]1nc(-c2ccc3c(c2)OCO3)nn1-c1nc(C(F)F)c(Cl)s1 [DCMT MeSO3^-, 2-(4-difluoromethyl-5-chlorothiazol-2-yl)-3-(2 methoxyphenyl)-5-(3,4-methylenedioxyphenyl) tetrazolium]	248 m mol L	> 760 m mol L	solubility in methanol (in words) [1]: greatly enhanced; solubility in water (in words) [1]: greatly enhanced
O=[N+]([O-])c1ccc(-n2nc(-c3ccccc3)n[n+]2-c2ccc(I)cc2)cc1 [INT MeSO3^-, 2-(4-iodophenyl)-3-(4-nitrophenyl)-5-phenyl tetrazolium]	35 m mol L		
COc1ccccc1-[n+]1nc(-c2ccc3c(c2)OCO3)nn1-c1nc(C(F)F)c(Cl)s1 [DCMT PeSO3^-, 2-(4-difluoromethyl-5-chlorothiazol-2-yl)-3-(2 methoxyphenyl)-5-(3,4-methylenedioxyphenyl) tetrazolium]	2.6 m mol L	> 700 m mol L	
COc1ccc(-c2nn(-c3nc4c(cc(OC)c5ccccc54)s3)[n+](-c3cc(OC)c(OC)c(OC)c3)n2)cc1 [MTM NO3^-, 2-(5-methoxynaphtho[1,2-d]thiazol-2-yl)-3-(3,4,5-trimethoxyphenyl)-5-(4-methoxyphenyl) tetrazolium]		7.6 m mol L	
